We go through 1 compound from patent US8198274B2, “Substituted indolyl and indazolyl derivatives and uses thereof” (Roche Palo Alto LLC, priority 2008, dated 2012).

For test [1], the target named is T1, human norepinephrine transporter (hNET) (Homo sapiens, UniProt P23975).
T1 construct: expressed in transfected cells
Kind of test: Screening for compounds active at human norepinephrine transporter (hNET), scintillation proximity assay, competition with [3H]-Nisoxetine. The class given is binding. To be noted: membranes of HEK-293 cells, SPA. As for the experimental part:
This assay was used to determine the affinity of ligands for the hNET transporter by competition with [^3H]-Nisoxetine. As in the hSERT assay of the above example, receptor-containing membranes were pre-coupled to the SPA beads and the binding of the appropriate radioligand to the transporter was measured. The light emission was proportional to the amount of bound radioligand, with unbound radioligand producing no signal.
HEK-293 cells (Tatsumi et al., Eur. J. Pharmacol. 1997, 30, 249-258) stably expressing recombinant hNET (Clone: HEK-hNET #2) were maintained with media (DMEM hi glucose with 10% FBS, 300 μg/ml G418 and 2 mM L-Glutamine) and incubated at 37° C. with 5% CO2. Cells were released from culture flasks using PBS for 1-2 minutes. […]
Cell membranes were prepared using a membrane preparation buffer of 50 mM TRIS (pH 7.4). […] After a second centrifugation, the pellet was re-homogenized and brought to a final volume determined during the assay. […]
^3[H] […] The mixtures were allowed to stand at room temperature for one hour, and were then counted on a Packard TopCount LCS, a generic SPA counting protocol settings (Energy Range: Low, Efficiency Mode: Normal, Region A: 1.50-35.00, Region B: 1.50-256.00, Count Time (min.): 0.40, Background Subtract: none, Half-Life Correction: no, Quench Indicator: tSIS, Platemap blank subtraction: No, Cross talk reduction: Off). […]
Background: In a scintillation proximity assay essentially only radioactivity close to the scintillant gives light.

The target in test [2] is T2, human dopamine transporter (hDAT) (Homo sapiens, UniProt Q01959).
T2 construct: expressed in transfected cells
T2 sequence (Q01959 whole entry): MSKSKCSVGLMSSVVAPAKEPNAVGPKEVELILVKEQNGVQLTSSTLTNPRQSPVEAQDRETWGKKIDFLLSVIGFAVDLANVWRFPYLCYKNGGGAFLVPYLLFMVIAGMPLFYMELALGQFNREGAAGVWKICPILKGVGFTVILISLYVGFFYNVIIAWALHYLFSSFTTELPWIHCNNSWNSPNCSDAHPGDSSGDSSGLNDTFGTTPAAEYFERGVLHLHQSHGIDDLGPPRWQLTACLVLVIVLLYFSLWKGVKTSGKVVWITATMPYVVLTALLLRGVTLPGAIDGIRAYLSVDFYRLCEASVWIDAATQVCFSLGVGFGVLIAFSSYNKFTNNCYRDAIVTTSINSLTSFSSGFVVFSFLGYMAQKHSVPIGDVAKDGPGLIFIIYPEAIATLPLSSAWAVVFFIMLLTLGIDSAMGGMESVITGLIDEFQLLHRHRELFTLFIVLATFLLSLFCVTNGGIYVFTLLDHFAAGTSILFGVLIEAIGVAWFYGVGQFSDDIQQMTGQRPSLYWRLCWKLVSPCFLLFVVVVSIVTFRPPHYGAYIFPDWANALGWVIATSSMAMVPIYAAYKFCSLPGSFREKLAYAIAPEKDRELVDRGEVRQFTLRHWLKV
As to the kind of experiment: Screening for compounds active at human dopamine transporter (hDAT), scintillation proximity assay, competition with [3H]-Vanoxerine. The class given is binding. Particulars: HEK-293 cells, SPA. As for the experimental part:
This assay was used to determine the affinity of ligands for the dopamine transporter by competition with [^3H]-Vanoxerine.
HEK-293 cells (Tatsumi et al., Eur. J. Pharmacol. 1997, 30, 249-258) stably expressing recombinant hDAT were maintained with media (DMEM hi glucose with 10% FBS, 300 μg/ml G418 and 2 mM L-Glutamine) and incubated at 37° C. with 5% CO2. Cells were plated four hours prior to experiment by placing approximately 30,000 cells per well (in PBS) on white, opaque Cell-Tak coated 96 well plates. Extra buffer was apriated from the cell plates using an ELx405 plate washer.
^3[H] vanoxerine (GBR 12909) radioligand, specific activity approximately 59 Ci/mmol, stock concentration, 400 nM, and 50 mM Tris-HCl, 300 mM NaCl, (pH 7.4) buffers were used for Scintillation Proximity Assay IC50/Ki determination. […]
The % inhibition was calculated for each compound tested [(Compound CPM at maximum concentration-Non-Specific CPM)/Total CPM*100]. […]
[formula] where max=total binding, min=non specific binding, x=concentration (M) of the tested compound and n=Hill slope. The inhibition dissociation constant (Ki) of each compound was determined according to the method of Cheng-Prusoff and then converted into negative logarithm (pKi) of the Ki.

T1 sequence (P23975 whole entry): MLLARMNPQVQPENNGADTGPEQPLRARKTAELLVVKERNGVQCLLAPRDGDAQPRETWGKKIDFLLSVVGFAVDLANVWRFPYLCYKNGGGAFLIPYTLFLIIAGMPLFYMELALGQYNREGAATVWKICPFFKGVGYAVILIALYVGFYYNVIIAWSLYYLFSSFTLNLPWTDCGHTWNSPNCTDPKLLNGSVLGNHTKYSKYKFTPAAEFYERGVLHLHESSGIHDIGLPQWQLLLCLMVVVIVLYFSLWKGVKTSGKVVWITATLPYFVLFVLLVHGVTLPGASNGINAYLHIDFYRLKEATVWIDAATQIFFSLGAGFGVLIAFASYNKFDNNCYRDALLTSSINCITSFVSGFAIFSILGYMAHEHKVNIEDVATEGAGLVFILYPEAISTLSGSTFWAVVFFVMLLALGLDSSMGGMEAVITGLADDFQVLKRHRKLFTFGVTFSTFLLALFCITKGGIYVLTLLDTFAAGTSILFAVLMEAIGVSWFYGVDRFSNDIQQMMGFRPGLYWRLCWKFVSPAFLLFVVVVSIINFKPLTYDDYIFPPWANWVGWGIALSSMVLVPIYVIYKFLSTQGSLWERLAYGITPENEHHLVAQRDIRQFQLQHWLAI

Regarding `CNCc1ccccc1Cc1ccc2[nH]c(C(N)=O)cc2c1` [Compound 40, 5-(2-Methylaminomethyl-benzyl)-1H-indole-2-carboxylic acid amide], the Ki in test [1] was roughly 3.98 nM; in test [2], roughly 5.01 nM.

As usually defined, the Ki is the equilibrium dissociation constant of an inhibitor or competing ligand from its target.
